Reference: patent publication US11534425B2, “Compounds for the treatment of acute organ injury” (priority 2018, dated 2022)
Read-outs that look alike come from different tables or passages of the source.

How the values were obtained:
[1] = test system: Primary rat cortical neurons; assay: Staurosporine (STS) injury assay, cell viability by CELLTITER-BLUE; format: cell-based
Protocol: Primary rat cortical neurons were cultured on poly-D-lysine coated 96-well plates at a density of 1×10^5/well in Neurobasal medium+B27 supplement. 1/2 media swaps were given every 3 d. ARA-c was added to the medium on day in vitro (DIV) 3 to inhibit glial proliferation. On DIV9, maintenance media (2/3) was collected from plates and mixed with fresh media (1/3) to obtain ˜67% conditioned medium (CM). Staurosporine (STS) and drugs were prepared in 100% DMSO and diluted in CM. Uninjured controls received an equal concentration of DMSO. Primary cortical neurons were incubated with +STS+drugs for in 100 μL/well CM. Cell viability was determined 24 h later (DIV10) by CELLTITER-BLUE® (n=10 replicates/group). […] Data were analyzed by 1-Way-ANOVA and Newman-Keuls Multiple Comparison Test. Graphs show Mean+SEM. Data are significant at p<0.05. Conclusion: NSC74429 is a potent a neuroprotectant as determined by the STS cell death assay.

[2] = test system: pAKT473; conditions: primary rat cortical neurons, Jackson et al., 2013; cited from earlier work
[3] = test system: pAKT473; assay: pAKT473 levels in cultured primary rat cortical neurons (Western blots); format: cell-based; conditions: 25 μM or 50 μM, 35 min
Protocol: We tested if NSC74429 also increases pAKT473 levels using our published protocol. In brief, uninjured primary rat cortical neurons were maintained in Neurobasal+B27. Prior to treatments, neurons were given a supplement starvation period by exchanging maintenance media with basic Neurobasal (i.e. minus B27), and returned to a 37° C. incubator for 2 h. Neurons were subsequently treated 35 min with DMSO, 25 μM NSC74429, or 50 μM NSC74429 (diluted in basic Neurobasal). Western blots confirm that PHLPP1 and PHLPP2 isoforms are detected in rat cortical neurons. […] PHLPP inhibitors increase pAKT473 levels but NSC74429 had the opposite effect. Moreover, inhibition of pAKT473 is expected to promote cell death yet NSC74429 (AKT inhibitor) was neuroprotective as shown in FIG. 1 and FIG. 2. […] Data were analyzed by 1-Way-ANOVA and Newman-Keuls Multiple Comparison Test. Graphs show Mean+SEM. Data are significant at p<0.05. Conclusion: Together PHLPP1 and PHLPP2 regulate the dephosphorylation of pAKT473 on AKT1, AKT2, and AKT3 isoforms.

[4] = test system: pAKT473; assay: pAKT473 levels in vivo, injured hippocampus after ACA; conditions: rat ACA, 1 or 3 mg/kg, iv 5 min after ROSC and ip 24 h post-injury, tissue 1 h after final injection
Protocol: A separate cohort of rats was used to generate hippocampal tissue homogenates. Rats were given ACA and subsequently treated with (a) vehicle, (b) 1 mg/kg NSC74429, or (c) 3 mg/kg NSC74429. Treatments were administered by iv bolus injection 5 min after ROSC, and a 2nd ip bolus injection 24 h post-injury. Shams were administered vehicle injections and preparatory surgery but were not injured. Rats were euthanized 1 h following the final drug injection and brain tissue collected for protein analysis. […] Data were analyzed by 1-Way-ANOVA and Newman-Keuls Multiple Comparison Test. Injured rats were randomized to treatment group, and drugs provided to a technician in de-identified coded vials. The technician that administered drug injections was blinded to treatment group. Graphs show Mean+SEM. Data are significant at p<0.05.

[5] = test system: PHLPP2; conditions: reported by Sierecki and colleagues; read-out: IC50 to block PHLPP2; cited from earlier work
[6] = test system: Sprague Dawley rats; assay: Adult rat asphyxia cardiac arrest (ACA), hippocampal CA1 cell survival counts; format: in vivo; conditions: 1 mg/kg or 3 mg/kg, given 5 min after ROSC
Text: We tested the therapeutic efficacy of NSC74429 in a model of brain injury (ACA) in which the blood brain barrier (BBB) remains intact. Male ˜300 g Sprague Dawley rats were anesthetized on isoflurane (4% induction/2% maintenance on 50% O2/50% N2) and mechanically ventilated. The left femoral artery and vein were accessed and cannulated with heparinized-saline filled PE-50 tubing. EKG, mean arterial pressure (MAP), rectal temperature, and pectoralis temperature were continuously monitored. Body temperature was maintained to 37° C. Arterial blood gas measurements were analyzed and ventilator settings adjusted as needed to achieve normal PaO2 and PaCO2. 2 mg/kg cisatracurium was administered 5 min prior to CA to stop spontaneous breathing (i.e. neuromuscular blockage). The ventilator was disconnected. Mean arterial pressure (MAP) decreased over 2-3 min until reaching target no-flow (<10 mmHG). […] Data were analyzed by 1-Way-ANOVA and Newman-Keuls Multiple Comparison Test. […] The technician that administered drug injections, and the technician that analyzed histology, were blinded to treatment group. A single value in the vehicle-injury group (indicated by a * in the table above) was a statistical outlier as determined by the Dixon's test and was removed from statistical analysis. […]

[7] = test system: C57BL/6 mice; assay: Adult mouse controlled cortical impact plus hemorrhagic shock (CCI+HS), CA1/CA3 cell counts; format: in vivo
Text: Traumatic brain injury (TBI) compromises the BBB, making it easier for drugs to reach injured tissue, and TBI is also worsened by secondary injuries such as hypotension due to profound blood loss (HS). Adult male ˜28 g C57BL/6 mice were anesthetized with isoflurane via a nose cone (4% induction/2% maintenance on 70% N2O/30% O2), given preparatory surgery, and sequentially injured by (1) a CCI-TBI and (2) HS, as reported by our group (Jackson et al., 2015). In brief, mice were given a moderate CCI above the left parietal cortex (impact tip velocity 5 m/s and cortical depth 1.0 mm). 5 min later, HS was initiated by withdrawing blood until mean arterial pressure (MAP) decreased from ˜90 mmHG (normal) to ˜25-27 mmHG (hypotensive). HS was maintained for 35 min. Mice were then volume resuscitated using lactated ringer's (LR) solution for 90 min to mimic pre-hospital care (targeted MAP of ˜70 mmHG). Finally, shed blood was returned over 15 min to mimic definitive hospital care and MAP returned to normal. (A-D) In a first study we measured the acute neuroprotective effects of NSC74429 on hippocampal injury 48 h after CCI+HS. Mice were given an intravenous bolus injection of vehicle (5% DMSO in D5W) or NSC74429 (1 mg/kg or 3 mg/kg) immediately after the hospital phase (i.e. […] after the initial CCI-injury). A second intraperitoneal injection was administered 24 h later, and brains collected for CA1/CA3 cell counts 48 h post-injury. One animal died in the vehicle-injury group and four animals died in the 3 mg/kg NSC74429 group prior to tissue collection. (A and B) Scatter plots show CA1/CA3 cell counts in surviving animals. 1 mg/kg NSC74429 was neuroprotective. Hippocampal survival bifurcated in the 3 mg/kg high-dose group; some animals had improved CA1/CA3 survival vs. vehicle-injury whereas others were clearly made worse. Given that mortality was also higher with 3 mg/kg NSC74429 (4 vs. 1), we eliminated the high-dose group from further statistical analysis. (C and D) Statistical analysis of CA1/CA3 cell counts. […] (E and F) A second study was done to test if NSC74429 neuroprotection is sustained chronically by 7 d post-injury. Only the low dose (1 mg/kg) was tested. Mice were injured as described above, given intravenous injection of vehicle or 1 mg/kg drug immediately following the hospital phase of HS, supplemental injections administered intraperitoneally at 24 h, 48 h, and 72 h post-injury, and brains collected for histology 7 d post-injury. […] Data were analyzed by 1-Way-ANOVA and Newman-Keuls Multiple Comparison Test. Graphs show Mean+SEM. Data are significant at p<0.05. Injured rats were randomized to treatment group, and drugs provided to a technician in de-identified coded vials. The technician that administered drug injections, and the technician that analyzed histology, were blinded to treatment group. Conclusion: NSC74429 is neuroprotective in the acute and chronic phase after injury in a severe trauma model.

[8] = test system: Primary rat cortical neurons; assay: Glutamate-excitotoxicity assay, cell viability by CELLTITER-BLUE; format: cell-based; conditions: 10 μM glutamic acid 5 min, viability 24 h later
Protocol: (§1) Primary rat cortical neurons were cultured on poly-D-lysine coated 96-well plates at a density of 1×10^5/well in Neurobasal medium+B27 supplement. 1/2 media swaps were given every 3 d. ARA-c was added to the maintenance medium on day in vitro (DIV) 3 to inhibit glial proliferation. (A) On DIV9, maintenance media (2/3) was collected from plates and mixed with fresh media (1/3) to obtain 67% conditioned medium (CM). Cells were washed once with balanced salt solution (BSS supplemented with 5 mM glucose; 200 μL/well). BSS was replaced with BSS containing 10 μM glutamic acid, and incubated on cells 5 min to induce excitotoxicity. Glutamic acid/BSS was replaced with 100 μL/well CM, containing DMSO (control) or drugs, and returned to the incubator for 24 h (n=10 replicates/group). (B) DIV9 cells were washed once with BSS, injured 35 min with 40 μM H2O2 dissolved in BSS, and replaced with 100 μL/well CM containing DMSO (control) or drugs. Cell viability was determined 24 h later (DIV10) by addition of 20 μL/well CELLTITER-BLUE® (n=10 replicates/group). Data were analyzed by 1-Way-ANOVA and Newman-Keuls Multiple Comparison Test. Graphs show Mean+SEM. Data are significant at p<0.05. Excitotoxicity is a major cause of neuronal death across the spectrum of CNS injury.

[9] = test system: Primary rat cortical neurons; assay: Hydrogen peroxide (H2O2)-oxidative stress assay, cell viability by CELLTITER-BLUE; format: cell-based; conditions: 40 μM H2O2 35 min, viability 24 h later
Protocol: as §1

[10] = 1 mg/kg iv then ip at 24 h, 48 h post-injury

COc1cc(NCCC2CCCCN2)c2ncccc2c1 (stereo not shown) [NSC13378]
neuroprotection, cell viability after STS injury ([1]; viability 24 h later (DIV10)): failed to protect

Nc1c(S(=O)(=O)O)cc(Nc2cccc(S(N)(=O)=O)c2)c2c1C(=O)c1ccccc1C2=O [NSC117079]
pAKT473 levels [2]: dose-dependently increase pAKT473 levels

CN(C)CCOC(=O)c1ccc(N)cc1 [NSC25247]
neuroprotection, cell viability after STS injury ([1]; 50 μM, viability 24 h later): mildly neuroprotective

S=C(Nc1ccc2cn[nH]c2c1)Nc1ccc2cn[nH]c2c1 [NSC74429]
pmTOR2448 (other phosphorylated proteins) ([3]; uninjured neurons): did not affect | pAKT473 levels ([3]; uninjured neurons after 2 h supplement starvation): dose-dependently decreased pAKT473 levels | pAKT473 levels in the injured hippocampus [4]: did not increase pAKT473 levels | neuroprotection, cell viability after STS injury ([1]; 25-50 μM, viability 24 h later): potently neuroprotective | IC50 [5]: 5 µM | hippocampal CA1 cell survival (neuroprotection) [6]: neuroprotective | CA1 survival ([7]; 1 mg/kg iv then ip at 24, 48, 72 h, 7 d post-injury): equivalent in both injured groups | CA3 tissue sparing, above vehicle injury ([7]; 1 mg/kg iv then ip at 24, 48, 72 h, 7 d post-injury, not statistically significant): ~17.5% | CA1 cell survival [7, 10]: significantly increased | CA3 cell survival [7, 10]: significantly increased | hippocampal CA1/CA3 survival ([7]; 3 mg/kg high-dose group, 48 h post-injury): bifurcated | mortality (animals died prior to tissue collection) ([7]; 3 mg/kg, vs. 1 in vehicle-injury group): 4 animals | glutamate-induced neuronal death ([8]; 25 μM): insufficient to decrease glutamate-induced neuronal death | glutamate-induced neuronal death (excitotoxic injury) ([8]; 50 μM): reduced excitotoxic injury | cell death induced by oxidative stress [9]: decreases cell death

Cc1cc(N=Nc2ccc(N=Nc3ccc(O)c(C(=O)[O-])c3)cc2)c(N)cc1N.[Na+] [NSC45586]
pAKT473 levels [2]: dose-dependently increase pAKT473 levels
